Data: the RepoRT retention time repository

assay: RP, Thermo Scientific Hypersil GOLD, 1.9 µm, 40 °C, 0.4 mL/min; A: water + 0.1% formic acid, pH 3; B: acetonitrile + 0.1% formic acid, pH 3; gradient (min/%B) 0/0 1/0 11/100 13/100 14/0 16/0; details: stereoisomer not certain

| SMILES | LC retention time [min] |
| --- | --- |
| NC(=O)c1cccnc1 [NICOTINAMIDE] | 0.83 |
| COC(=O)c1ccc(O)c(OC)c1 [METHYL VANILLATE] | 6.4 |
| NC(=O)Cc1c[nH]c2ccccc12 [INDOLE-3-ACETAMIDE] | 5.37 |
| CC(CCCC(C)(C)O)C1CCC2C3CC=C4CC(O)CCC4(C)C3CCC12C (stereo not given) [25-HYDROXYCHOLESTEROL] | 11.9 |
| COC(=O)CCCCC(=O)O [mono-Methyl adipate] | 5.42 |
| CC(CCC(=O)O)C(=O)O (stereo not given) [2-METHYLGLUTARATE] | 4.4 |
| CC(=O)NC(CO)C(=O)O (stereo not given) [N-ACETYLSERINE] | 0.78 |
| NCCS(=O)O [HYPOTAURINE] | 0.63 |
| Nc1ncnc2c1ncn2C1CC(O)C(CO)O1 (stereo not given) [DEOXYADENOSINE] | 1.09 |
| C#CC1(O)CCC2C3CCc4cc(O)ccc4C3CCC21C (racemic) | 8.17 |
| CC12CCC(=O)C=C1CCC1C2C(O)CC2(C)C1CCC2(O)C(=O)CO (stereo not given) [CORTISOL] | 6.73 |
| O=C1CCC(C(=O)O)N1 (stereo not given) [OXOPROLINE] | 0.82 |
| Nc1cc([O-])cc(C(=O)O)c1 [3-AMINO-5-HYDROXYBENZOATE] | 0.81 |
| CNC(CC(=O)O)C(=O)O (stereo not given) [N-METHYLASPARTATE] | 0.63 |
| CCCCCCCCC=CCCCCCCCC(=O)OCC(O)COP(=O)([O-])OCC[N+](C)(C)C (stereo not given) [18-1_LysoPC] | 0.61 |
| Cc1cn(C2CC(O)C(CO)O2)c(=O)[nH]c1=O (stereo not given) [THYMIDINE] | 3.68 |
| CC12CCC(=O)C=C1CCC1C2CCC2(C)C1CCC2(O)C(=O)CO (stereo not given) [CORTEXOLONE] | 7.48 |
| NC(N)=NCC(=O)O [GUANIDINOACETATE] | 0.62 |
| O=C(O)c1c(O)cccc1O [2-6-Dihydroxybenzoic acid] | 5.12 |
| C[N+](C)(C)CCOP(=O)(O)O [PHOSPHORYLCHOLINE] | 0.64 |
| O=C([O-])CCc1ccccc1O [3-(2-HYDROXYPHENYL)PROPANOATE] | 5.92 |

| SMILES | LC retention time [min] |
| --- | --- |
| O=CCC(O)C(O)CO (stereo not given) | 0.82 |
| O=C1OC(C(O)CO)C(O)=C1O (stereo not given) [ASCORBATE] | 0.78 |
| O=S(=O)(O)c1ccc(O)c(O)c1 [3-4-dihydroxybenzenesulfonic acid] | 0.84 |
| O=CC(O)C1OC(=O)C(O)C1O [D-GLUCURONOLACTONE] | 0.71 |
| NC(CSSCC(N)C(=O)O)C(=O)O (stereo not given) [CYSTINE] | 0.61 |
| O=C([O-])C=CC(=O)[O-] [MALEATE] | 0.88 |
| COC1=C(OC)C(=O)C(CC=C(C)CCC=C(C)C)=C(C)C1=O [coenzyme Q2] | 11 |
| O=c1c(O)c(-c2ccc(O)cc2O)oc2cc(O)cc(O)c12 [Morin hydrate] | 6.29 |
| Oc1ccc(C=Cc2cc(O)cc(O)c2)cc1 [resveratrol] | 6.28 |
| CNCC(O)c1ccc(O)c(O)c1 (stereo not given) [EPINEPHRINE] | 0.74 |
| NC1C(O)OC(COP(=O)(O)O)C(O)C1O (stereo not given) [GLUCOSAMINE 6-PHOSPHATE] | 0.6 |
| CC(=O)NC(C(=O)O)C(C)C (racemic) [N-acetyl-DL-valine] | 4.62 |
| O=C(O)CC(C(=O)O)C(O)C(=O)O (stereo not given) [ISOCITRATE] | 2.37 |
| NC(N)=NC(CC(=O)O)C(=O)O (stereo not given) [GUANIDINOSUCCINATE] | 0.67 |
| Nc1nc2c(c(=O)[nH]1)N=C(CNc1ccc(C(=O)NC(CCC(=O)O)C(=O)O)cc1)CN2 (stereo not given) [DIHYDROFOLATE] | 4.54 |
| Nc1ccccc1S(=O)(=O)O [ANILINE-2-SULFONATE] | 1.42 |
| CC(C)(N)C(=O)O [2-AMINOISOBUTYRATE] | 0.67 |
| CN(C)c1ccc(N)cc1 [N-N-DIMETHYL-1-4-PHENYLENEDIAMINE] | 0.83 |
| CC(C)C(O)(CC(=O)O)C(=O)O (stereo not given) [2-Isopropylmalic acid] | 4.79 |
| NCCC(=O)NC(Cc1cnc[nH]1)C(=O)O (stereo not given) [CARNOSINE] | 0.59 |
| OCC1OC(OCC2OC(OCC3OC(OC4(CO)OC(CO)C(O)C4O)C(O)C(O)C3O)C(O)C(O)C2O)C(O)C(O)C1O (stereo not given) [STACHYOSE] | 0.67 |

| SMILES | LC retention time [min] |
| --- | --- |
| CC(CCC(=O)O)C1CCC2C3C(O)C(O)C4CC(O)CCC4(C)C3CCC12C (stereo not given) [5b-cholanic acid-3a-6a-7a-TRIOL] | 7.96 |
| O=c1ccc2cc(O)ccc2[nH]1 [2-6-quinolinediol] | 4.44 |
| O=C/C=C/c1ccccc1 [Trans-Cinnamaldehyde] | 7.27 |
| CC(=O)C1(O)CCC2C3CC=C4CC(O)CCC4(C)C3CCC21C (stereo not given) [17a-Hydroxypregnenolone] | 0.67 |
| O=C(O)CCCCCCCCCCCO [OMEGA-HYDROXYDODECANOATE] | 7.84 |
| NC(=O)c1ccc[n+](C2OC(COP(=O)(O)OP(=O)(O)OCC3OC(n4cnc5c(N)ncnc54)C(OP(=O)(O)O)C3O)C(O)C2O)c1 (stereo not given) [NADP] | 4.21 |
| NC1C(O)OC(COS(=O)(=O)O)C(O)C1O (stereo not given) [GLUCOSAMINE 6-SULFATE] | 0.62 |
| CCC(N)C(=O)O [alpha-aminobutyric acid (L-2-aminobutyric acid)] | 0.69 |
| O=C(O)Cc1cnc[nH]1 [4-IMIDAZOLEACETATE] | 0.67 |
| Cn1c(=O)c2c(ncn2C)n(C)c1=O [CAFFEINE] | 4.85 |
| NC(CS)C(=O)NCC(=O)O (stereo not given) [CYS-GLY] | 0.59 |
| CCC(C(=O)O)C(=O)O [ETHYLMALONATE] | 3.77 |
| CCCCCCCCCCCCCC(=O)OCC(O)CO (stereo not given) [GLYCEROL-MYRISTATE] | 11.2 |
| NC(=O)CC[C@H](N)C(=O)O [L-Glutamine] | 0.62 |
| CSc1ncnc2nc[nH]c12 [THIOPURINE S-METHYLETHER] | 4.8 |
| Nc1ncnc2c1ncn2C1OC(CO)C2OP(=O)(O)OC21 (stereo not given) [ADENOSINE 2'-3'-CYCLIC PHOSPHATE] | 0.83 |
| NCCP(=O)(O)O [(2-AMINOETHYL)PHOSPHONATE] | 0.63 |
| COc1ccc2[nH]cc(CCNC(C)=O)c2c1 [MELATONIN] | 6.09 |
| O=C(O)c1ccc[nH]1 [PYRROLE-2-CARBOXYLATE] | 4.3 |
| NC(Cc1cc(I)c(Oc2ccc(O)cc2)c(I)c1)C(=O)O [3-5-DIIODO-L-THYRONINE] | 6.31 |
| Oc1cc(O)c2c(c1)OC(c1ccc(O)c(O)c1)C(O)C2 (single isomer, unassigned; (+)) [(+)-Catechin hydrate] | 4.73 |

Results, then the compound that gave them:

| LC retention time [min] | SMILES |
| --- | --- |
| 5.33 | NC(=O)c1ccccc1O [SALICYLAMIDE] |
| 0.78 | NC(=O)c1ccc[n+](C2OC(COP(=O)(O)OP(=O)(O)OCC3OC(n4cnc5c(N)ncnc54)C(O)C3O)C(O)C2O)c1 (stereo not drawn) [BETA-NICOTINAMIDE ADENINE DINUCLEOTIDE] |
| 0.59 | C[N+](C)(C)CCCCC(N)C(=O)[O-] (stereo not given) [N-N-N-TRIMETHYLLYSINE] |
| 0.55 | NCCCCCN [CADAVERINE] |
| 8.24 | O=C(O)c1ccc2ccccc2c1[O-] [1-HYDROXY-2-NAPHTHOATE] |
| 0.81 | O=C(O)c1cc[n+]([O-])cc1 [Isonicotinic acid N-oxide] |
| 3.59 | NCc1ccccc1 [BENZYLAMINE] |
| 0.82 | Cc1cccnc1 [3-Methylpyridine (3-Picoline)] |
| 6.57 | O=C(O)/C=C/c1c[nH]c2ccccc12 [trans-3-indoleacrylic acid] |
| 8.03 | CCOC(=O)Cc1c[nH]c2ccccc12 [ETHYL 3-INDOLEACETATE] |
| 4.21 | CSCCC(O)C(=O)O (stereo not given) [2-HYDROXY-4-(METHYLTHIO)BUTANOATE] |
| 1.99 | NC(Cc1c[nH]c2ccc(O)cc12)C(=O)O (stereo not given) [5-HYDROXYTRYPTOPHAN] |
| 1.2 | Nc1ccn(C2OC(COP(=O)(O)OP(=O)(O)O)C(O)C2O)c(=O)n1 (stereo not given) [CYTIDINE DIPHOSPHATE] |
| 14 | CCCCCCCCC=CCCCCCCCCCCCCCC(=O)[O-] [NERVONATE] |
| 0.57 | Cn1cncc1CC(NC(=O)CCN)C(=O)O (stereo not given) [ANSERINE] |
| 0.57 | NCC(O)CCC(N)C(=O)O (stereo not given) [5-HYDROXYLYSINE] |

| LC retention time [min] | SMILES |
| --- | --- |
| 9.28 | CC(CCC(=O)O)C1CCC2C3CCC4CC(O)CCC4(C)C3CC(O)C12C (stereo not given) [deoxycholic acid] |
| 5.5 | O=C(O)CNC(=O)c1ccccc1O [o-Hydroxyhippuric acid] |
| 0.65 | C[N+](C)(C)CC(=O)[O-] [BETAINE] |
| 0.82 | CC(O)C(O)C1=Nc2c(nc(N)[nH]c2=O)NC1 [7-8-Dihydro-L-biopterin] |
| 0.77 | O=C1CC(C(=O)O)NC(=O)N1 (stereo not given) [DIHYDROOROTATE] |
| 0.6 | OCCNCCO [DIETHANOLAMINE] |
| 5.47 | CC(=O)NC(CC(C)C)C(=O)O (stereo not given) [N-ACETYLLEUCINE] |
| 0.84 | O=C1C=CC(=O)N1 [MALEIMIDE] |
| 0.84 | NC(=O)C1CCCN1C(=O)C(Cc1cnc[nH]1)NC(=O)C1CCC(=O)N1 (stereo not given) [THYROTROPIN RELEASING HORMONE] |
| 0.67 | NC(CCCC(=O)O)C(=O)O (stereo not given) [AMINOADIPATE] |
| 1.6 | O=c1cccc[nH]1 [2-HYDROXYPYRIDINE] |
| 5.4 | O=Cc1cccc(O)c1 [3-HYDROXYBENZALDEHYDE] |
| 0.55 | CC(O)(CCO)CC(=O)[O-] (stereo not given) [MEVALONATE] |
| 0.82 | Nc1ncnc2c1ncn2C1OC(CO)C(OP(=O)(O)O)C1O (stereo not given) [Adenosine 3'-monophosphate free acid] |
| 6.87 | O=C(O)CCc1ccccc1 [hydrocinnamic acid] |
| 0.82 | Nc1ncnc2c1ncn2C1OC(CSCCC([NH3+])C(=O)[O-])C(O)C1O (stereo not given) [S-ADENOSYLHOMOCYSTEINE] |
